Measured values published in patent publication US7253146B2, “Template-fixed peptidomimetics with antimicrobial activity” (Polyphor Ltd, priority 2001, dated 2007).
In brackets after ≈: the same amount, converted by molar mass. Where a SMILES comes first, the peptide text is derived from it. [ ]: non-standard residue; d: D form. Cha = N[C@@H](CC1CCCCC1)C(=O)O; Nle = CCCC[C@H](N)C(=O)O

Legend:
Candida albicans = tested on: Candida albicans
Method: (§1) Lyophilized peptides were weighed on a Microbalance (Mettler MT5) and dissolved in sterile water containing 0.01% acetic acid Tachyplesin was purchased from Bachem Ltd. (Bubendorf Switzerland).
(§2) The antimicrobial activities of the peptides were determined by the standard NCCLS broth microdilution method (see ref 1, below) examined in sterile 96-wells plates (Nunclon polystyrene microtiter plates) in a total volume of 100 μl. […] 10^6 colony forming units (CFU)/ml for bacteria or 5×10^3 CFU/ml for Candida. Aliquots (50 μl) of the innocula were added to 50 μl of MH broth containing the peptide in serial twofold dilutions. The microorganisms used were Escherichia coli (ATCC 25922), Pseudomnonas aeruginosa (P. aeruginosa) (ATCC 27853), Stahylococcus aureus (ATCC 29213 and ATCC 25923) and Candida albicans. A selected number of peptides were screened for activity against a larger panel of gram-negative strains. These strains were; Escherichia coli ATCC 43827 and clinical isolates of Pseudomonas (P. aeruginosa V07 14482, P. aeruginosa 15288, P. aeruginosa V02 15328 and P. aeruginosa V09 16085) and Acinetobacter (Acinetobacter V04 19905/1, Acinetobacter V12 21143/1 and Acinetobacter V12 21193/1).

[1] = tested on: Staphylococcus aureus ATCC 25923; details: ATCC 25923
Method: as §1, §2

[2] = tested on: Escherichia coli (ATCC 25922); details: ATCC 25922
Method: as §1, §2

[3] = tested on: Staphylococcus aureus ATCC 29213; details: ATCC 29213
Method: as §1, §2

| SMILES | MIC Candida albicans (Candida albicans) | MIC Staphylococcus aureus ATCC 25923 [1] | MIC Escherichia coli ATCC 25922 [2] | MIC Staphylococcus aureus ATCC 29213 [3] |
| --- | --- | --- | --- | --- |
| CC(C)C[C@@H]1NC(=O)[C@H](CCCNC(=N)N)NC(=O)[C@H](CCCNC(=N)N)NC(=O)[C@H](CCCNC(=N)N)NC(=O)[C@H](Cc2ccc(O)cc2)NC(=O)[C@H](Cc2ccc(O)cc2)NC(=O)[C@H](CCCNC(=N)N)NC(=O)[C@@H]2CCCN2C(=O)[C@H]2CCCN2C(=O)[C@H](CCCNC(=N)N)NC(=O)[C@H](Cc2ccc(O)cc2)NC1=O [Example 11] (cyclo(RYYRRRLYR[dP]P)) | 100 µg/mL (≈ 63.4 µM) | 100 µg/mL (≈ 63.4 µM) | 25 µg/mL (≈ 15.8 µM) | 100 µg/mL (≈ 63.4 µM) |
| CC(C)C[C@@H]1NC(=O)[C@H](CCCNC(=N)N)NC(=O)[C@H](CCCNC(=N)N)NC(=O)[C@H](CCCNC(=N)N)NC(=O)[C@H](Cc2ccccc2)NC(=O)[C@H](Cc2ccccc2)NC(=O)[C@H](CC(C)C)NC(=O)[C@H](CCCNC(=N)N)NC(=O)[C@@H]2CCCN2C(=O)[C@H]2CCCN2C(=O)[C@H](CCCNC(=N)N)NC(=O)[C@H](Cc2ccccc2)NC1=O [Example 36] (cyclo(RLFFRRRLFR[dP]P)) | 25 µg/mL (≈ 15.2 µM) | 50 µg/mL (≈ 30.4 µM) | 25 µg/mL (≈ 15.2 µM) | 25 µg/mL (≈ 15.2 µM) |
| CC(C)C[C@@H]1NC(=O)[C@H](CCCNC(=N)N)NC(=O)[C@H](CCCNC(=N)N)NC(=O)[C@H](CCCNC(=N)N)NC(=O)[C@H](Cc2ccccc2)NC(=O)[C@H](Cc2ccccc2)NC(=O)[C@H](CC(C)C)NC(=O)[C@H](CC(C)C)NC(=O)[C@@H]2CCCN2C(=O)[C@H]2CCCN2C(=O)[C@H](CCCNC(=N)N)NC(=O)[C@H](Cc2ccccc2)NC1=O [Example 40] (cyclo(LLFFRRRLFR[dP]P)) | 25 µg/mL (≈ 15.6 µM) | 50 µg/mL (≈ 31.2 µM) | 25 µg/mL (≈ 15.6 µM) | 25 µg/mL (≈ 15.6 µM) |
| CC(C)C[C@@H]1NC(=O)[C@H](Cc2ccccc2)NC(=O)[C@H](CC(C)C)NC(=O)[C@H](CCCNC(=N)N)NC(=O)[C@@H]2CCCN2C(=O)[C@H]2CCCN2C(=O)[C@H](CC(C)C)NC(=O)[C@H](CCCNC(=N)N)NC(=O)[C@H](Cc2ccccc2)NC(=O)[C@H](Cc2ccccc2)NC(=O)[C@H](CCCNC(=N)N)NC(=O)[C@H](CCCNC(=N)N)NC(=O)[C@H](CCCNC(=N)N)NC1=O [Example 59] (cyclo(RLFLRRRFFRL[dP]P)) | 25 µg/mL (≈ 14.2 µM) | 50 µg/mL (≈ 28.5 µM) | 4.7 µg/mL (≈ 2.68 µM) | 25 µg/mL (≈ 14.2 µM) |
| CC(C)C[C@@H]1NC(=O)[C@H](Cc2ccccc2)NC(=O)[C@H](CC(C)C)NC(=O)[C@H](Cc2ccccc2)NC(=O)[C@@H]2CCCN2C(=O)[C@H]2CCCN2C(=O)[C@H](CCCNC(=N)N)NC(=O)[C@H](CCCNC(=N)N)NC(=O)[C@H](Cc2ccccc2)NC(=O)[C@H](CC(C)C)NC(=O)[C@H](CCCNC(=N)N)NC(=O)[C@H](CCCNC(=N)N)NC(=O)[C@H](CCCNC(=N)N)NC1=O [Example 63] (cyclo(FLFLRRRLFRR[dP]P)) | 12.5 µg/mL (≈ 7.12 µM) | 25 µg/mL (≈ 14.2 µM) | 6.2 µg/mL (≈ 3.53 µM) | 12.5 µg/mL (≈ 7.12 µM) |

Results, then the compound that gave them:

| MIC Candida albicans (Candida albicans) | MIC Staphylococcus aureus ATCC 25923 [1] | MIC Escherichia coli ATCC 25922 [2] | MIC Staphylococcus aureus ATCC 29213 [3] | SMILES |
| --- | --- | --- | --- | --- |
| 50 µg/mL (≈ 22.4 µM) | 12.5 µg/mL (≈ 5.59 µM) | 12.5 µg/mL (≈ 5.59 µM) | 12.5 µg/mL (≈ 5.59 µM) | CC(C)C[C@@H]1NC(=O)[C@H](Cc2ccc(O)cc2)NC(=O)[C@H](CCCNC(=N)N)NC(=O)[C@H](CCCNC(=N)N)NC(=O)[C@H](CCCNC(=N)N)NC(=O)[C@H](Cc2ccc(O)cc2)NC(=O)[C@H](CC(C)C)NC(=O)[C@H](CC(C)C)NC(=O)[C@H](Cc2ccc(O)cc2)NC(=O)[C@H](CCCNC(=N)N)NC(=O)[C@@H]2CCCN2C(=O)[C@H]2CCCN2C(=O)[C@H](CCCNC(=N)N)NC(=O)[C@H](CCCNC(=N)N)NC(=O)[C@H](Cc2ccc(O)cc2)NC(=O)[C@H](CC(C)C)NC1=O [Example 71] (cyclo(RYLLYRRRYLLYRR[dP]P)) |
| 12.5 µg/mL (≈ 5.03 µM) | 9.4 µg/mL (≈ 3.79 µM) | 6.2 µg/mL (≈ 2.5 µM) | 9.4 µg/mL (≈ 3.79 µM) | CC(C)C[C@@H]1NC(=O)[C@H](CCCNC(=N)N)NC(=O)[C@H](CCCCN)NC(=O)[C@@H]2CCCN2C(=O)[C@H]2CCCN2C(=O)[C@H](CCCNC(=N)N)NC(=O)[C@H](CC(C)C)NC(=O)[C@H](C(C)C)NC(=O)[C@H](CCCCN)NC(=O)[C@H](C(C)C)NC(=O)[C@H](Cc2ccc(O)cc2)NC(=O)[C@H](Cc2c[nH]c3ccccc23)NC(=O)[C@H](CCCNC(=N)N)NC(=O)[C@H](CCCNC(=N)N)NC(=O)[C@H](CCCNC(=N)N)NC(=O)[C@H](Cc2c[nH]c3ccccc23)NC(=O)[C@H](Cc2ccc(O)cc2)NC(=O)[C@H](CCCCN)NC1=O [Example 87] (cyclo(KRLKYWRRRWYVKVLR[dP]P)) |
| 12.5 µg/mL (≈ 6.67 µM) | 25 µg/mL (≈ 13.3 µM) | 9.4 µg/mL (≈ 5.02 µM) | 25 µg/mL (≈ 13.3 µM) | CC(C)C[C@@H]1NC(=O)[C@H](CCCNC(=N)N)NC(=O)[C@H](CC(C)C)NC(=O)[C@@H]2CCCN2C(=O)[C@H]2CCCN2C(=O)[C@H](C(C)C)NC(=O)[C@H](CCCNC(=N)N)NC(=O)[C@H](Cc2ccc(O)cc2)NC(=O)[C@H](CCCCN)NC(=O)[C@H](Cc2ccccc2)NC(=O)[C@H](CCCNC(=N)N)NC(=O)[C@H](CCCNC(=N)N)NC(=O)[C@H](Cc2ccc(O)cc2)NC(=O)[C@H](CCCCN)NC1=O [Example 103] (cyclo(LRLKYRRFKYRV[dP]P)) |
| 6.2 µg/mL (≈ 3.23 µM) | 6.2 µg/mL (≈ 3.23 µM) | 25 µg/mL (≈ 13 µM) | 6.2 µg/mL (≈ 3.23 µM) | CC(C)C[C@@H]1NC(=O)[C@H](CCCNC(=N)N)NC(=O)[C@H](CC2CCCCC2)NC(=O)[C@@H]2CCCN2C(=O)[C@H]2CCCN2C(=O)[C@H](C(C)C)NC(=O)[C@H](CCCNC(=N)N)NC(=O)[C@H](Cc2ccc(O)cc2)NC(=O)[C@H](CCCCN)NC(=O)[C@H](Cc2c[nH]c3ccccc23)NC(=O)[C@H](CCCNC(=N)N)NC(=O)[C@H](CCCNC(=N)N)NC(=O)[C@H](CCCCN)NC(=O)[C@H](CCCCN)NC1=O [Example 121] (cyclo([Cha]RLKKRRWKYRV[dP]P)) |
| 12.5 µg/mL (≈ 6.84 µM) | 25 µg/mL (≈ 13.7 µM) | 25 µg/mL (≈ 13.7 µM) | 50 µg/mL (≈ 27.3 µM) | CC[C@H](C)[C@@H]1NC(=O)[C@H](CCCCN)NC(=O)[C@H](Cc2c[nH]c3ccccc23)NC(=O)[C@H](CCCNC(=N)N)NC(=O)[C@H](CCCNC(=N)N)NC(=O)[C@H](CCCCN)NC(=O)[C@H](CCCCN)NC(=O)[C@H](CC(C)C)NC(=O)[C@H](CCCNC(=N)N)NC(=O)[C@H](CC(C)C)NC(=O)[C@@H]2CCCN2C(=O)[C@H]2CCCN2C(=O)[C@H](C(C)C)NC(=O)[C@H](CCCNC(=N)N)NC1=O [Example 152] (cyclo(LRLKKRRWKIRV[dP]P)) |
| 12.5 µg/mL (≈ 6.84 µM) | 12.5 µg/mL (≈ 6.84 µM) | 12.5 µg/mL (≈ 6.84 µM) | 25 µg/mL (≈ 13.7 µM) | CCCC[C@@H]1NC(=O)[C@H](CCCCN)NC(=O)[C@H](Cc2c[nH]c3ccccc23)NC(=O)[C@H](CCCNC(=N)N)NC(=O)[C@H](CCCNC(=N)N)NC(=O)[C@H](CCCCN)NC(=O)[C@H](CCCCN)NC(=O)[C@H](CC(C)C)NC(=O)[C@H](CCCNC(=N)N)NC(=O)[C@H](CC(C)C)NC(=O)[C@@H]2CCCN2C(=O)[C@H]2CCCN2C(=O)[C@H](C(C)C)NC(=O)[C@H](CCCNC(=N)N)NC1=O [Example 154] (cyclo(LRLKKRRWK[Nle]RV[dP]P)) |
